# Reference: ChEMBL document CHEMBL5727833, “MALT1 inhibitors and uses thereof” (2020)
# Biological target: T1, Mucosa-associated lymphoid tissue lymphoma translocation protein 1 (Homo sapiens, UniProt Q9UDY8)
# T1 sequence (Q9UDY8 whole entry): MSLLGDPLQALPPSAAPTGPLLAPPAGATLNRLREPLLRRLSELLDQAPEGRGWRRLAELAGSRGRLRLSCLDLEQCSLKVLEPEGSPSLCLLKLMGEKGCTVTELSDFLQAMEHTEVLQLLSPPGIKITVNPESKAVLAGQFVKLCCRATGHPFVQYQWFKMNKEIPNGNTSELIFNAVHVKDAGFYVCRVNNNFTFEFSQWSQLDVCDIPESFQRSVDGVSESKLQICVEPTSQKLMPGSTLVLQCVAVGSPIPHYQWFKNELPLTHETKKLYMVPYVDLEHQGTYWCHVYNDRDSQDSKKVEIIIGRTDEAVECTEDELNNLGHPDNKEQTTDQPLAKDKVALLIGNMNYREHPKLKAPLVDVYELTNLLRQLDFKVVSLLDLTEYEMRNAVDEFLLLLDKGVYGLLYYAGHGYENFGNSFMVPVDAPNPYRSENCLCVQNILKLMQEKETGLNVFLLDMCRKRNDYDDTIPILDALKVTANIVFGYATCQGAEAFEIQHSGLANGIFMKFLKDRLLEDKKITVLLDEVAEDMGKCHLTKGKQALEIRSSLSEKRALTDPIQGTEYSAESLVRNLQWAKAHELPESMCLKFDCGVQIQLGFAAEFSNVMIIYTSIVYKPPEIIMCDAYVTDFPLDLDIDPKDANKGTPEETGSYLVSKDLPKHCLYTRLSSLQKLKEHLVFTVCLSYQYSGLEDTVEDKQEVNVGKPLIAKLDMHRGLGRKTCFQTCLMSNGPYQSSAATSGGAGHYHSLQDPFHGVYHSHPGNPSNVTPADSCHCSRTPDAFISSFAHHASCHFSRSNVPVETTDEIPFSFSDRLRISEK
# Test: Biological Assay: For exemplary compounds of the disclosure, Ki for inhibition of MALT1 was measured (Table E11). A concentration of 100 nM MALT1 was used for the assay.
row,Ki,SMILES
1,78 nM,CC(C)[C@H](NC(=O)c1ccc(Br)c(F)c1)C(=O)N1CCC[C@H]1C(=O)N[C@@H](CCCNC(=N)N)C(=O)CF
2,22 nM,CC(C)c1ccc(C(=O)N[C@H](C(=O)N2CCC[C@H]2C(=O)N[C@@H](CCCNC(=N)N)C(=O)CF)C(C)C)cc1
3,13 nM,CC(C)[C@H](NC(=O)c1ccc(Br)c(C#N)c1)C(=O)N1CCC[C@H]1C(=O)N[C@@H](CCCNC(=N)N)C(=O)CF
4,66 nM,CC(C)[C@H](NS(=O)(=O)c1ccc(Br)cc1)C(=O)N1CCC[C@H]1C(=O)N[C@@H](CCCNC(=N)N)C(=O)CF

# The remaining lines, values behind:
row,SMILES,Ki
1,CC(C)[C@H](NC(=O)Nc1ccccc1Cl)C(=O)N1CCC[C@H]1C(=O)N[C@@H](CCCNC(=N)N)C(=O)CF,24 nM
2,Cc1nc(C(=O)N[C@H](C(=O)N2CCC[C@H]2C(=O)N[C@@H](CCCNC(=N)N)C(=O)CF)C(C)C)cs1,52 nM
3,N=C(N)NCCC[C@H](NC(=O)[C@@H]1C[C@@H](O)CN1C(=O)[C@@H](NC(=O)c1ccc(Br)cc1)C1CCCCC1)C(=O)CF,34 nM
4,N=C(N)NCCC[C@H](NC(=O)[C@@H]1CCCN1C(=O)[C@H](Cc1cccnc1)NC(=O)c1ccc(Br)cc1)C(=O)CF,> 1000 nM
